Measurements: patent publication US20070276022A1, “Optically Active Carboxamides” (priority 2003, published 2007)

Test system: Sphaerotheca fuliginea
Test: Sphaerotheca test (cucumber)/protective
Assay type: in vivo
Conditions: protective, 3.125 g/ha, evaluation 7 days after inoculation
Protocol: (§1) For the production of an appropriate active compound preparation 1 part by weight of active compound is mixed with the given amount of solvent and emulsifier and the concentrate is diluted to the desired concentration with water.
(§2) For the investigation of the protective activity young cucumber plants are sprayed with the active compound preparation in the amount specified. After drying of the spray coating the plants are inoculated with an aqueous spore suspension of Sphaerotheca fuliginea. The plants are then placed in a greenhouse at ca. 23° C. and a relative humidity of ca. 70%.
Evaluation is carried out 7 days after the inoculation. A level of activity of 0% corresponds to the level of activity of the control, whereas a level of activity of 100% means that no infestation is observed.

In order of rising “Level of activity in %” value:
1. CC(C)C[C@@H](C)c1sccc1NC(=O)c1cn(C)nc1C(F)(F)F [drawing 54]  35%
2. CC(C)C[C@H](C)c1sccc1NC(=O)c1cn(C)nc1C(F)(F)F [drawing 53]  98%

Same assay, conditions: protective, 25 g/ha, evaluation 7 days after inoculation

In order of rising “Level of activity in %” value:
1. Cc1nn(C)c(F)c1C(=O)Nc1ccccc1[C@H](C)CC(C)(C)C [drawing 46]  0%
2. Cc1nn(C)c(F)c1C(=O)Nc1ccccc1[C@H](C)CC(C)C [drawing 44]  7%
3. CC(C)C[C@@H](C)c1ccccc1NC(=O)c1ccccc1I [drawing 52]  15%
4. CC(C)C[C@H](C)c1ccccc1NC(=O)c1ccccc1I [drawing 51]  85%
5. Cc1nn(C)c(F)c1C(=O)Nc1ccccc1[C@@H](C)CC(C)(C)C [drawing 45]  94%
6. Cc1nn(C)c(F)c1C(=O)Nc1ccccc1[C@@H](C)CC(C)C [drawing 47]  96%

Same assay, conditions: protective, 50 g/ha, evaluation 7 days after inoculation

In order of falling “Level of activity in %” value:
1. CC(C)C[C@H](C)c1ccccc1NC(=O)c1cn(C)cc1C(F)(F)F [drawing 55]  91%
2. CC(C)C[C@@H](C)c1ccccc1NC(=O)c1cn(C)cc1C(F)(F)F [drawing 56]  23%

Test system: Alternaria solani
Test: Alternaria test (tomato)/protective
Assay type: in vivo
Conditions: protective, 50 g/ha, evaluation 3 days after inoculation
Protocol: as §1
as §2, with “young” for “young cucumber”, “Alternaria solani.” for “Sphaerotheca fuliginea.”, “an incubator” for “a greenhouse”, “20°” for “23°”, “100%.” for “ca. 70%.”
Evaluation is carried out 3 days after the inoculation. A level of activity of 0% corresponds the level of activity of the control, whereas a level of activity of 100% means that no infestation is observed.

In order of falling “Level of activity in %” value:
1. CC(C)C[C@H](C)c1ccccc1NC(=O)c1cn(C)cc1C(F)(F)F [drawing 79]  83%
2. CC(C)C[C@@H](C)c1ccccc1NC(=O)c1cn(C)cc1C(F)(F)F [drawing 80]  30%

Test system: Venturia inaequalis
Test: Venturia test (apple)/protective
Assay type: in vivo
Conditions: protective, 3.125 g/ha, evaluation 10 days after inoculation
Protocol: as §1
For the investigation of the protective activity young plants are sprayed with the active compound preparation in the amount specified. After drying of the spray coating the plants are inoculated with an aqueous conidial suspension of the apple scab pathogen Venturia inaequalis then left for 1 day in an incubator at ca. 20° C. and a relative humidity of 100%.
The plants are then placed in a greenhouse at ca. 21° C. and a relative humidity of ca. 90%.
(§3) Evaluation is carried out 10 days after the inoculation. A level of activity of 0% corresponds to the level of activity of the control, whereas a level of activity of 100% means that no infestation is observed.

In order of falling “Level of activity in %” value:
1. CC(C)C[C@H](C)c1sccc1NC(=O)c1cn(C)nc1C(F)(F)F [drawing 65]  100%
2. CC(C)C[C@@H](C)c1sccc1NC(=O)c1cn(C)nc1C(F)(F)F [drawing 66]  7%

Same assay, conditions: protective, 25 g/ha, evaluation 10 days after inoculation

In order of rising “Level of activity in %” value:
1. Cc1nn(C)c(F)c1C(=O)Nc1ccccc1[C@H](C)CC(C)(C)C [drawing 60]  0%
2. CC(C)C[C@@H](C)c1ccccc1NC(=O)c1ccccc1C(F)(F)F [drawing 62]  0%
3. CC(C)C[C@@H](C)c1ccccc1NC(=O)c1ccccc1I [drawing 64]  16%
4. Cc1nn(C)c(F)c1C(=O)Nc1ccccc1[C@H](C)CC(C)C [drawing 58]  21%
5. Cc1nn(C)c(F)c1C(=O)Nc1ccccc1[C@@H](C)CC(C)C [drawing 57]  100%
6. CC(C)C[C@H](C)c1ccccc1NC(=O)c1ccccc1I [drawing 63]  100%
7. Cc1nn(C)c(F)c1C(=O)Nc1ccccc1[C@@H](C)CC(C)(C)C [drawing 59]  100%
8. CC(C)C[C@H](C)c1ccccc1NC(=O)c1ccccc1C(F)(F)F [drawing 61]  100%

Same assay, conditions: protective, 50 g/ha, evaluation 10 days after inoculation

In order of rising “Level of activity in %” value:
1. CC(C)C[C@@H](C)c1ccccc1NC(=O)c1cn(C)cc1C(F)(F)F [drawing 68]  20%
2. CC(C)C[C@H](C)c1ccccc1NC(=O)c1cn(C)cc1C(F)(F)F [drawing 67]  100%

Test system: Botrytis cinera
Test: Botrytis test (bean)/protective
Assay type: in vivo
Conditions: protective, 62.5 g/ha, evaluation 2 days after inoculation
Protocol: as §1
For the investigation the protective activity young plants are sprayed with the active compound preparation in the amount specified. After drying of the spray coating 2 small pieces of agar coated with Botrytis cinera are placed on each leaf. The inoculated plants are then placed in a darkened room at ca 20° C. and a relative humidity of 100%.
The size of the infestation spots on the leaves are evaluated 2 days after the inoculation. A level of activity of 0% corresponds to the level of activity of the control, whereas a level of activity of 100% means that no infestation is observed.

In order of rising “Level of activity in %” value:
1. CC(C)C[C@@H](C)c1ccccc1NC(=O)c1cn(C)cc1C(F)(F)F [drawing 78]  50%
2. CC(C)C[C@H](C)c1ccccc1NC(=O)c1cn(C)cc1C(F)(F)F [drawing 77]  100%

Same assay, conditions: protective, 250 g/ha, evaluation 2 days after inoculation

In order of falling “Level of activity in %” value:
1. Cc1nn(C)c(F)c1C(=O)Nc1ccccc1[C@@H](C)CC(C)(C)C [drawing 71]  100%
2. Cc1nn(C)c(F)c1C(=O)Nc1ccccc1[C@@H](C)CC(C)C [drawing 69]  100%
3. CC(C)C[C@H](C)c1ccccc1NC(=O)c1ccccc1C(F)(F)F [drawing 73]  90%
4. CC(C)C[C@H](C)c1ccccc1NC(=O)c1ccccc1I [drawing 75]  86%
5. Cc1nn(C)c(F)c1C(=O)Nc1ccccc1[C@H](C)CC(C)C [drawing 70]  29%
6. CC(C)C[C@@H](C)c1ccccc1NC(=O)c1ccccc1C(F)(F)F [drawing 74]  18%
7. Cc1nn(C)c(F)c1C(=O)Nc1ccccc1[C@H](C)CC(C)(C)C [drawing 72]  14%
8. CC(C)C[C@@H](C)c1ccccc1NC(=O)c1ccccc1I [drawing 76]  0%

Test system: Podosphaera leucotricha
Test: Podosphaera test (apple)/protective
Assay type: in vivo
Conditions: protective, 12.5 g/ha, evaluation 10 days after inoculation
Protocol: as §1
as §2, with “investigation for” for “investigation of”, “young” for “young cucumber”, “of the apple mildew pathogen Podosphaera leucotricha.” for “of Sphaerotheca fuliginea.”
as §3

In order of falling “Level of activity in %” value:
1. CC(C)C[C@H](C)c1ccccc1NC(=O)c1cn(C)cc1C(F)(F)F [drawing 41]  98%
2. CC(C)C[C@@H](C)c1ccccc1NC(=O)c1cn(C)cc1C(F)(F)F [drawing 42]  28%

Same assay, conditions: protective, 50 g/ha, evaluation 10 days after inoculation

In order of rising “Level of activity in %” value:
1. CC(C)C[C@@H](C)c1ccccc1NC(=O)c1ccccc1C(F)(F)F [drawing 40]  20%
2. CC(C)C[C@H](C)c1ccccc1NC(=O)c1ccccc1C(F)(F)F [drawing 39]  100%
